Experimental data published in US6218393A, “Anthranilic acid derivatives as multi drug resistance modulators” (priority 1997, dated 2001).

What follows are compounds tested on AR 1.0 cells (assay: Drug accumulation assay: daunorubicin accumulation in AR 1.0 cells). Details: Mus musculus, 100% = accumulation with verapamil 100 μM, 1 hr, 37° C.
Format: cell-based
Experimental: The EMT6 mouse mammary carcinoma cell line and the MDR resistant subline AR 1.0 were cultured in RPMI 1640 medium containing 10% foetal calf serum and 2 mM glutamine at 37° C. in 5% CO2. Cells were passaged between 1 in 200 and 1 in 2000 in the case of the parental cell line and between 1 in 20 and 1 in 200 in the case of the MDR resistant subline, after trypsinisation (0.25% trypsin, 0.2 gl^-1, EDTA).
AR 1.0 cells were seeded 48 hours prior to assay into 96 well opaque culture plates (Canberra Packard).

| IC50 | Structure (SMILES) |
| --- | --- |
| 2060 nM | COc1cc2c(cc1OC)CN(CCc1ccc(NC(=O)c3ccccc3NC(=O)c3ccc(O)cc3)cc1)CC2 [compound 9559, 2-(4-Hydroxy-benzoylamino)-N-{4-[2-(6,7-dimethoxy-3,4-dihydro-1H-isoquinolin-2-yl)-ethyl]-phenyl}-benzamide] |
| 1600 nM | COc1cc2c(cc1OC)CN(CCc1ccc(NC(=O)c3ccccc3NC(=O)c3ccccc3C(F)(F)F)cc1)CC2 [compound 9523, 2-(2-Trifluoromethyl-benzoylamino)-N-{4-[2-(6,7-dimethoxy-3,4-dihydro-1H-isoquinolin-2-yl)-ethyl]-phenyl}-benzamide] |
| 2900 nM | COc1cc2c(cc1OC)CN(CCc1ccc(NC(=O)c3ccccc3NC(=O)c3cnccn3)c(C)c1)CC2 [compound 9658, Pyrazine-2-carboxylic acid (2-{4-[2-(6,7-dimethoxy-3,4-dihydro-1H-isoquinolin-2-yl)-ethyl]2-methyl-phenylcarbamoyl}-phenyl)-amide] |
| 87 nM | COc1ccc(CN(C)CCc2ccc(NC(=O)c3ccc(C)cc3NC(=O)c3cnc4ccccc4c3)cc2)cc1OC [compound 9668] |
| > 10000 nM | COc1cc2c(cc1OC)CN(CCc1ccc(NC(=O)c3ccccc3NC(=O)c3cnc4cc(C(F)(F)F)ccc4c3O)cc1)CC2 [compound 9592, 4-Hydroxy-7-trifluoromethyl-quinoline-3-carboxylic acid (2-{4-[2-(6,7-dimethoxy-3,4-dihydro-1H-isoquinolin-2-yl)-ethyl]-phenylcarbamoyl}-phenyl)-amide] |
| 1890 nM | COc1cc2c(cc1OC)CN(CCOc1ccc(NC(=O)c3ccccc3NC(=O)c3cnc4ccccc4c3)cc1)CC2 [compound 9623, Quinoline-3-carboxylic acid (2-{4-[2-(6,7-dimethoxy-3,4-dihydro-1H-isoquinolin-2-yl)-ethoxy]-phenylcarbamoyl}-phenyl)-amide] |
| 5000 nM | COc1cc2c(cc1OC)CN(CCNC(=O)c1ccccc1NC(=O)c1ccc3c(c1)OCO3)CC2 [compound 9302, Benzo[1,3]dioxole-5-carboxylic acid {2-[2-(6,7-dimethoxy-3,4-dihydro-1H-isoquinolin-2-yl)-ethylcarbamoyl]-phenyl}-amide] |
| 425 nM | COc1cc2c(cc1OC)CN(CCc1ccc(NC(=O)c3ccccc3NC(=O)c3cc4ccccc4nc3Cl)cc1)CC2 [compound 9591, 2-Chloro-quinoline-3-carboxylic acid (2-{4-[2-(6,7-dimethoxy-3,4-dihydro-1H-isoquinolin-2-yl)-ethyl]-phenylcarbamoyl}-phenyl)-amide] |
| 1000 nM | COc1cc2c(cc1OC)CN(CCc1ccc(NC(=O)c3ccccc3NC(=O)c3cccc(C(F)(F)F)c3)cc1)CC2 [compound 9524] |
| > 10000 nM | COc1cc2c(cc1OC)CN(CCNC(=O)c1ccccc1NC(=O)c1cccnc1)CC2 [compound 9359, N-{2-[2-(6,7-Dimethoxy-3,4-dihydro-1H-isoquinolin-2-yl)-ethylcarbamoyl]-phenyl}-nicotinamide] |
| > 10000 nM | COc1cc2c(cc1OC)CN(CCNC(=O)c1ccccc1NC(=O)c1cnccn1)CC2 [compound 9391, Pyrazine-2-carboxylic acid {2-[2-(6,7-dimethoxy-3,4-dihydro-1H-isoquinolin-2-yl)-ethylcarbamoyl]-phenyl}-amide] |
| 5000 nM | COc1cc2c(cc1OC)CN(CCNC(=O)c1cccc(OC)c1NC(=O)c1ccc(C(C)C)cc1)CC2 [compound 9399, 2-(4-Isopropyl-benzoylamino)-N-[2-(6,7-dimethoxy-3,4-dihydro-1H-isoquinolin-2-yl)-ethyl]-3-methoxy-benzamide] |
| 3900 nM | COc1cc2c(cc1OC)CN(CCc1ccc(NC(=O)c3c(C)cccc3NC(=O)c3ccccc3)cc1)CC2 [compound 9512, 2-Benzoylamino-N-{4-[2-(617-dimethoxy-3,4-dihydro-1H-isoquinolin-2-yl)-ethyl]-phenyl}-6-methyl-benzamide] |
| 1270 nM | COc1ccc(C(=O)Nc2ccccc2C(=O)Nc2ccc(CCN3CCc4cc(OC)c(OC)cc4C3)cc2)cn1 [compound 9582, N-(2-{4-[2-(6,7-Dimethoxy-3,4-dihydro-1H-isoquinolin-2-yl)-ethyl]-phenylcarbamoyl}-phenyl)-6-methoxy-nicotinamide] |
| 1200 nM | COc1cc2c(cc1OC)CN(CCc1ccc(NC(=O)c3ccccc3NC(=O)c3cc4ccccc4[nH]3)cc1)CC2 [compound 9515, 1H-Indole-2-carboxylic acid (2-{4-[2-(6,7-dimethoxy-3,4-dihydro-1H-isoquinolin-2-yl)-ethyl}-phenylcarbamoyl}-phenyl)-amide] |
| 10000 nM | COc1cc2c(cc1OC)CN(CCNC(=O)c1ccccc1NC(=O)c1cnc3ccccc3c1)CC2 [compound 9397, Quinoline-3-carboxylic acid {2-[2-(6,7 dimethoxy-3,4-dihydro-1H-isoquinolin-2-yl)-ethylcarbamoyl]-phenyl}-amide] |
| 8670 nM | COc1cc2c(cc1OC)CN(CCc1ccc(NC(=O)c3sc4nccnc4c3NC(=O)c3cnc4ccccc4c3)cc1)CC2 [compound 9666, Quinoline-3-carboxylic acid (6-{4-[2-(6,7-dimethoxy-3,4-dihydro-1H-isoquinolin-2-yl)-ethyl]-phenylcarbamoyl}-thieno[2,3-b]pyrazin-7-yl)-amide] |
| 6960 nM | O=C(Nc1ccccc1C(=O)Nc1ccc(CCN2CCc3ccc([N+](=O)[O-])cc3C2)cc1)c1cnc2ccccc2c1 [compound 9634, Quinoline-3-carboxylic acid (2-{4-[2-(7-nitro-3,4-dihydro-1H-isoquinolin-2-yl)-ethyl]-phenylcarbamoyl}-phenyl)-amide] |
| 2270 nM | O=C(Nc1ccccc1C(=O)Nc1ccc(CCN2CCc3cc(Cl)c(Cl)cc3C2)cc1)c1cnc2ccccc2c1 [compound 9628, Quinoline-3-carboxylic acid (2-{4-[2-(6,7-dichloro-3,4-dihydro-1H-isoquinolin-2-yl)-ethyl]-phenylcarbamoyl}-phenyl)-amide] |
| 860 nM | COc1cc2c(cc1OC)CN(CCc1ccc(NC(=O)c3ccccc3NC(=O)c3cccc(N(C)C)c3)cc1)CC2 [compound 9556, 2-(3-Dimethylamino-benzoylamino)-N-{4-[2-(6,7-dimethoxy-3,4-dihydro-1H-isoquinolin-2-yl)-ethyl]-phenyl}-benzamide] |
| > 10000 nM | COc1cc2c(cc1OC)CN(CCc1ccc(NC(=O)c3ccccc3NC(=O)c3cnc4ccccc4c3O)cc1)CC2 [compound 9606, 4-Hydroxy-quinoline-3-carboxylic acid (2-{4-[2-(6,7-dimethoxy-3,4-dihydro-1H-isoquinolin-2-yl)-ethyl]-phenylcarbamoyl}-phenyl)-amide] |
| > 10000 nM | O=C(Nc1ccccc1C(=O)Nc1ccc(CCN2CCc3ccc(Cl)c(Cl)c3C2)cc1)c1cnc2ccccc2c1 [compound 9629, Quinoline-3-carboxylic acid (2-{4-[2-(7,8-dichloro-3,4-dihydro-1H-isoquinolin-2-yl)-ethyl]-phenylcarbamoyl}-phenyl)-amide] |
| 3000 nM | COc1cc2c(cc1OC)CN(CCNC(=O)c1cccc(Cl)c1NC(=O)c1ccc(C(C)C)cc1)CC2 [compound 9401, 2-(4-Isopropyl-benzoylamino)-N-[2-(6,7-dimethoxy-3,dihydro-1H-isoquinolin-2-yl)-ethyl]-3-chioro-benzamide] |
| 5500 nM | COc1cc2c(cc1OC)CN(CCNC(=O)c1ccccc1NC(=O)c1ccccn1)CC2 [compound 9377, Pyridine-2-carboxylic acid {2-[2-(6,7-dimethoxy-3,4-dihydro-1H-isoquinolin-2-yl)-ethylcarbamoyl]-phenyl}-amide] |
| 2100 nM | O=C(Nc1ccccc1C(=O)NCCN1CCc2ccccc2C1)c1ccc(C2CCCCC2)cc1 [compound 9479, 2-(4-Cyclohexyl-benzoylamino)-N-[2-(3,4-dihydro-1H-isoquinolin-2-yl)-ethyl]-benzamide] |
| 169 nM | COc1ccc(CN(C)CCc2ccc(NC(=O)c3ccc([N+](=O)[O-])cc3NC(=O)c3cnc4ccccc4c3)cc2)cc1OC [compound 9677, Quinoline-3-carboxylic acid [2-(4-{2-[(3,4-dimethoxy-benzyl)-methyl-amino]-ethyl}-phenylcarbamoyl)-5-nitro-phenyl]-amide] |
| 469 nM | COc1ccc(CN(CCc2ccc(NC(=O)c3ccccc3NC(=O)c3cnc4ccccc4c3)cc2)C(C)C)cc1OC [compound 9669, Quinoline-3-carboxylic acid [2-(4-{2-[(3,4-dimethoxy-benzyl)-isopropyl-amino]-ethyl}-phenylcarbamoyl)-phenyl]-amide] |
| 200 nM | COc1cc2c(cc1OC)CN(CCc1ccc(NC(=O)c3ccccc3NC(=O)c3ccc(F)cc3F)cc1)CC2 [compound 9513, 2-(2,4-Difluoro-benzoylamino)-N-{4-[2-(6,7-dimethoxy-3,4-dihydro-1H-isoquinolin-2-yl)-ethyl]-phenyl}-benzamide] |
| 135 nM | COc1cc2c(cc1OC)CN(CC(C)c1ccc(NC(=O)c3ccccc3NC(=O)c3cnc4ccccc4c3)cc1)CC2 (stereo not shown) [compound 9654, Quinoline-3-carboxylic acid (2-{4-[2-(6,7-dimethoxy-3,4-dihydro-1H-isoquinolin-2-yl)-1-methyl-ethyl]-phenylcarbamoyl}-phenyl)-amide] |
| 490 nM | COc1cc2c(cc1OC)CN(CCc1cccc(NC(=O)c3ccccc3NC(=O)c3cnc(C)cn3)c1)CC2 [compound 9653, 5-Methyl-pyrazine-2-carboxylic acid (2-{3-[2-(6,7-dimethoxy-3,4-dihydro-1H-isoquinolin-2-yl)-ethyl]-phenylcarbamoyl}-phenyl)-amide] |

| Structure (SMILES) | IC50 |
| --- | --- |
| CCCCOc1cc(CN(C)CCc2ccc(NC(=O)c3cc(OC)c(OC)cc3NC(=O)c3cnc4ccccc4c3)cc2)ccc1OC [compound 9656, Quinoline-3-carboxylic acid [2-(4-{2-[(3-butoxy-4-methoxy-benzyl)-methyl-amino]-ethyl}-phenylcarbamoyl)-4,5-dimethoxy-phenyl]-amide] | 188 nM |
